Four compounds from patent US20110053835A1, “ANTIMICROBIAL PEPTIDES DERIVED FROM CAP18” (OctoPlus Sciences B.V., priority 2004, published 2011) can be followed below.

Values after ≈ are worked out from the molar mass of the structure shown. Where two headings read alike, the source gives them in different places. Marks after values point to notes of the source that are not given here.

Test [1] concerns peripheral blood mononuclear cells (PBMC). Description: γ-IFN Elispot assay. It counts as cell-based. The settings on record: fraction of positive stimulation indices (positive: >2), 48 hours of culture. On the procedure: (§1) The compounds prepared according to example 1 were tested for their therapeutically undesirable immunogenic activity by using Elispot, T-cell proliferation, ERK-activation, and neutrophil chemotaxis assays. The Elispot assay is applicable to determine effects of drugs, chemicals or other compounds on cytokine secretion in vitro, thereby providing data on their putative modulatory effects on immune function in vivo. The results of the assay are given as fraction of positive responses to IFN-gamma. […] Cytokines are direct mediators of inflammation and influence the progress and direction of many immunological reactions. Perturbation of the balance in cytokine production is widely recognized as a critical factor in several disease states. This balance is already disturbed in the case of conditions such as otitis media with effusion and sinusitis. T. cell proliferation is also not favorable in this situation, because this will also stimulate the immune response that is already out of control.
(§2) For T cell proliferation, 150,000 peripheral blood mononuclear cells (PBMC) were cultured in the absence or presence of 10 μg/ml of the compounds for 5 days in 96 well round bottom plates (Costar Inc. Cambridge, Mass.) in a final volume of 150 μl IMDM complete. As a positive control, PBMC were cultured in the presence of 25 U/ml recombinant IL-2. During the final 20 hours of culture, PBMC were pulsed with [3H]thymidine (0.5 microCi/well), after which 3H-incorporation was measured by liquid scintillation counting. For detection of the T cell cytokines IFN and IL-10 by Elispot analysis, 1.5×10^6 PBMC were cultured in 0.5 ml IMDM complete in the absence or presence of various concentrations of synthetic peptide. As a positive control PBMC were stimulated by 10 μg/ml poke weed mitogen (PWM). After 48 hours of culture, PBMC were harvested by gently rinsing the wells with warm IMDM to collect non-adherent cells, which were washed in a large volume of IMDM. PBMC were subsequently plated on antibody-precoated ELISA plates and cultured for 5 hours in IMDM supplemented with 2% pooled human AB serum at 37° C. 5% CO2, after which the plates were developed according to the manufacturer's protocol (U-CyTech, Utrecht, The Netherlands), Spots were counted on an Olympus microscope and analyzed with Olympus Micro Image 4.0 software (Paes Nederland, Zoeterwoude, The Netherlands). The final results are expressed as fraction of positive stimulation indices (positive: >2).

Test [2] deals with neutrophils isolated from peripheral blood. In words: Neutrophil chemotaxis (modified Boyden chamber). The test is classed as cell-based. To be noted: percentage neutrophils on the membrane compared to positive control 10^−8 M FMLP; 90 minutes at 37° C. On the procedure: Neutrophils chemotaxis was measured with neutrophils isolated from peripheral blood using Percoll density centrifugation (density: 1.082 g/ml). The cells were resuspended at a concentration of 2.5×10^6 cells/ml in chemotaxis medium (20 mM N-2-hydroxyethylpiperazine-N′-2-ethanesulfonic acid (HEPES buffer) HEPES, 132 mM NaCl, 6 mM KCl, 1.2 mM KH2PO4, 1 mM MgSO4, 5.5 mM glucose, 0.1 mM CaCl2 and 0.5% (wt/vol) human serum albumm [Central Laboratory of the Netherlands Red Cross Blood Transfusion Service (CLB), Amsterdam, The Netherlands] diluted 1:1 with serum-free RPMI. The chemotactic activity of the compounds was assessed using a modified Boyden Camber technique. Briefly, 26 μl stimuli diluted in HEPES buffer was added to the wells of the lower compartment, and 50 μl of neutrophil suspension (2.5×10^6 cells/ml) was added to the upper compartment. The compartments were separated by two filters: a lower filter with a pore size of 0.45 μm (Millipore Products, Bedford, Mass.) and an upper filter with a pore size of 8 μm (Sartorius Filter, San Francisco, Calif.). After incubation for 90minutes at 37° C., the upper filters were removed, fixed in ethanol-butanol (80:20, vol/vol), and stained with Weigert solution. To determine neutrophil chemotactic activity, neutrophils were counted in six random high-power fields (×400), and the percentage neutrophils on the membrane as compared to the positive control (10^−8 M, N-formylmethionyl-leucyl-phenylalanine (FMLP, Sigma) was calculated.

Test [3] has as its system peripheral blood mononuclear cells (PBMC). Description: T cell proliferation ([3H]thymidine incorporation). To be noted: fraction of positive stimulation indices (positive: >2), 10 μg/ml compound, 5 days. It counts as cell-based. As to the method: as §1, §2
Background: Dividing cells build labelled thymidine or BrdU into new DNA.

Test [4] concerns LPS. In words: LPS neutralization, whole blood (WB) assay. It counts as cell-based. To be noted: ± SD. As to the method:
(§3) The compounds prepared according to example 1 were tested for their capability to neutralize the bacterial toxin LPS with a limulus amoebocyte lysate (LAL) assay and with a whole blood (WB) assay. LTA neutralization was also measured with a whole blood assay. Peptide LL-37 was used as a positive control. The peptide concentration whereby 50% LPS is neutralized was used as a measure of the peptide's activity. These concentration values were as in table 1. The differences between the compounds within each assay were not statistically significant.

The test system of test [5] is Aspergillus niger ATCC 14406. As to the method: (§4) The in vitro antibacterial and antifungal activity of P60.4-Ac and LL-37 were determined as the minimum inhibitory concentrations (MIC) by a microdilution susceptibility test in 96-well microtiter plates, according to a modified version of R. Hancock's “Modified MIC method for cationic antimicrobial peptides” [13]. The antibacterial activity was tested on the reference strains Escherichia coli ATCC 8739, Pseudmonas aeruginosa ATCC 9027. The antifungal activity was evaluated on Candida albicans ATCC 10231 and Aspergillus niger ATCC 14406. The antimicrobial activity assay was conducted with different concentrations of P60.4Ac and LL-37 to compare their effects on the bacterial or fungal growth. Antibacterial activity was examined using log-phase cultured bacteria in Trypticase Soy Broth at 37° C. The cultures were diluted with 10 mM Sodium Phosphate buffer pH 7.4 to give approximately 5.0×10^6 CFU/ml. 10 μl of the diluted test strain was transferred to a 96-well plate and 100 μl of the different peptide concentrations was added to each well. The plates were incubated at 37° C. for 24 hours and are then scored for growth by visual inspection on a light box. They are then returned for incubation for a further 24 hours after which time they are re-evaluated for growth. The yeast strain C. albicans was prepared as described above. The filamentous fungi A. niger was used as a spore suspension, cultured on Sabourauds Dextrose Agar plates at 20-25° C. for 6-10 days or until adequate sporulation has occurred. The spores were harvested by scrapping and if necessary the concentration was adjusted to a final concentration of 5×10^6 CFU/ml.

Test [6] concerns Escherichia coli ATCC 8739. The settings on record: mean of three determinations. On the procedure: as §4
The test system of test [7] is Candida albicans ATCC 10231. On the procedure: as §4
Test [8] deals with P. aeruginosa ATCC9027. As to the method:
as §4

In test [9] the test system is LPS. In words: LPS neutralization, limulus amoebocyte lysate (LAL) assay. It counts as biochemical. The settings on record: ± SD. On the procedure:
as §3

Test [10] deals with LTA. Description: LTA neutralization, whole blood (WB) assay. It counts as cell-based. To be noted: ± SD. As to the method:
as §3

The MIC is the least concentration at which growth counts as inhibited. Higher therefore signals a need for much substance. As for `CC[C@H](C)[C@H](NC(=O)[C@H](CCCCN)NC(=O)[C@H](CCC(=O)O)NC(=O)[C@H](CCCCN)NC(=O)[C@H](CO)NC(=O)[C@H](CCCCN)NC(=O)[C@H](CCCNC(=N)N)NC(=O)[C@H](Cc1ccccc1)NC(=O)[C@H](Cc1ccccc1)NC(=O)[C@H](CC(=O)O)NC(=O)CNC(=O)[C@H](CC(C)C)NC(=O)[C@@H](N)CC(C)C)C(=O)NCC(=O)N[C@@H](CCCCN)C(=O)N[C@@H](CCC(=O)O)C(=O)N[C@@H](Cc1ccccc1)C(=O)N[C@@H](CCCCN)C(=O)N[C@@H](CCCNC(=N)N)C(=O)N[C@H](C(=O)N[C@H](C(=O)N[C@@H](CCC(N)=O)C(=O)N[C@@H](CCCNC(=N)N)C(=O)N[C@H](C(=O)N[C@@H](CCCCN)C(=O)N[C@@H](CC(=O)O)C(=O)N[C@@H](Cc1ccccc1)C(=O)N[C@@H](CC(C)C)C(=O)N[C@@H](CCCNC(=N)N)C(=O)N[C@@H](CC(N)=O)C(=O)N[C@@H](CC(C)C)C(=O)N[C@H](C(=O)N1CCC[C@H]1C(=O)N[C@@H](CCCNC(=N)N)C(=O)N[C@H](C(=O)N[C@@H](CCC(=O)O)C(=O)N[C@@H](CO)C(=O)O)[C@@H](C)O)C(C)C)[C@@H](C)CC)C(C)C)[C@@H](C)CC` [LL-37, reference compound], in test [1], the “γ-IFN Elispot” value is reported as 4/8. In addition, the “Chemotaxis (%)” value in [2] stood at 84 ± 17%. Further, in test [3], the T cell proliferation is 6/8. Moreover, the “Compound concentration for 50% LPS-neutralization, LPS (WB)” value in test [4] was found to be 1.2 ± 0.3 µg/mL. The MIC in test [5] (A. niger ATCC14406, incubation 24 h) was more than 18 µM; in [5] (A. niger ATCC14406, incubation 48 h), >18^e μM; in test [6] (E. coli ATCC8739, incubation 24 h) it was 3 µM (≈ 13.5 µg/mL); in [6] (E. coli ATCC8739, incubation 48 h), 7^b μM; in test [7] (C. albicans ATCC10231, incubation 24 h), 12 µM (≈ 53.9 µg/mL); in test [7] (C. albicans ATCC10231, incubation 48 h), >18^e μM. The MIC in [8] (P. aeruginosa ATCC9027, incubation 24 h) is 3 µM (≈ 13.5 µg/mL); in test [8] (P. aeruginosa ATCC9027, incubation 48 h), 14^d μM. Also, the “activity against A. niger” value in test [5] (up to 18 μM) is listed as “no activity”. The “Compound concentration for 50% LPS-neutralization, LPS (LAL)” value in [9] is 1.3 ± 0.2 µg/mL. The “Compound concentration for 50% LTA-neutralization, LTA (WB)” value in test [10] came out at 1.6 ± 0.5 µg/mL.

For “IGKEFERIVQRIKDFLRNLVPRTE [Compound P60, 24 amino acid peptide derived from CAP18/LL-37]”, the “γ-IFN Elispot” value in [1] is recorded as 1/8. For the same compound, the “Chemotaxis (%)” value in [2] came out at 76 ± 39%. The T cell proliferation in [3] is reported as 7/8. In test [4], the “Compound concentration for 50% LPS-neutralization, LPS (WB)” value was 1.4 ± 0.1 µg/mL. In [9], the “Compound concentration for 50% LPS-neutralization, LPS (LAL)” value is 1.5 ± 0.5 µg/mL. Moreover, the “Compound concentration for 50% LTA-neutralization, LTA (WB)” value in test [10] turned out to be 2.1 ± 0.7 µg/mL.

On to “IGKEFKRIVERIKRFLRELVRPLR [Compound P60.4]”, for which the “γ-IFN Elispot” value in test [1] is on record as 3/8. In test [2], the “Chemotaxis (%)” value is listed as 0 ± 0%. Besides, in test [3], the T cell proliferation is listed as 2/8. In test [4], the “Compound concentration for 50% LPS-neutralization, LPS (WB)” value stood at 2.1 ± 0.6 µg/mL. For the same compound, the “Compound concentration for 50% LPS-neutralization, LPS (LAL)” value in [9] amounted to 1.7 ± 0.6 µg/mL. Further, the “Compound concentration for 50% LTA-neutralization, LTA (WB)” value in test [10] was 2.0 ± 1.3 µg/mL.

On to “IGKEFKRIVQRIKDFLRNLVPRTE [Compound P60.Ac]”, for which the “γ-IFN Elispot” value in test [1] is listed as 3/8. In test [2], the “Chemotaxis (%)” value stood at 61 ± 36%. Moreover, in test [3], the T cell proliferation is 4/8. For the same compound, the “Compound concentration for 50% LPS-neutralization, LPS (WB)” value in [4] was 2.4 ± 0.5 µg/mL. In addition, in test [9], the “Compound concentration for 50% LPS-neutralization, LPS (LAL)” value is 1.8 ± 0.8 µg/mL. In addition, the “Compound concentration for 50% LTA-neutralization, LTA (WB)” value in test [10] was 2.1 ± 0.1 µg/mL.
